Source: publication PMC7307922 (Journal of Medicinal Chemistry, 2020)

How the values were obtained:
FFA3 R185A = system: FFA3 R185A; design: method as in PMID 24870406; conditions: orthosteric binding site; cited from earlier work
FFA3 R258A = system: FFA3 R258A; design: method as in PMID 24870406; conditions: orthosteric binding site; cited from earlier work
mFFA3 = molecular target: T1, mFFA3 (Mus musculus, UniProt Q3UFD7); assay: biochemical
T1 sequence (Q3UFD7 1-319): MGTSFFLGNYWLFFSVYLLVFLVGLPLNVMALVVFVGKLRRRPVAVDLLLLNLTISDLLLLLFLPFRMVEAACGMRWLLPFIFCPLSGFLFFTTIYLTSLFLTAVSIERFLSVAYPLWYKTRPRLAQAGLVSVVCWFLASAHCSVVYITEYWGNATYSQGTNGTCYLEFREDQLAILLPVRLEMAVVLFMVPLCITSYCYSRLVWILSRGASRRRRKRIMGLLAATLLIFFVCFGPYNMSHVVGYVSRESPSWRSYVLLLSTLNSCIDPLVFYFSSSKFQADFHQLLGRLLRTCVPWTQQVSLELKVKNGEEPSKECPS
Protocol: Reactions were initiated with the addition of [^35S]GTPγS at 50 nCi per tube; reactions were terminated after 1 h of incubation at 25 °C by rapid filtration through GF/C glass filters using a 24-well Brandel cell harvester (Alpha Biotech, Glasgow, UK). Unbound radioligand was removed from filters by washing three times with ice-cold wash buffer (50 mM Tris–HCl, pH 7.4, and 10 mM MgCl2), and [^35S]GTPγS binding was determined by liquid scintillation spectrometry.

[1] = Chemical stability in DMSO (NMR); assay type: physicochemical
Protocol: To further ensure the suitability of 57 as a tool compound for in vitro studies, the chemical stability was also evaluated in dimethyl sulfoxide (DMSO).

Row | SMILES | effect of mutation R185A (FFA3 R185A) | effect of mutation R258A (FFA3 R258A) | EC50 (mFFA3) [nM] | chemical stability in DMSO ([1]; 4 °C, after 1 and 30 days, NMR) | chemical stability in DMSO ([1]; rt, not protected from light, 7 days) | chemical stability in DMSO ([1]; rt, not protected from light, 30 days)
1 | CC1=C(C(=O)Nc2ccccc2C)C(c2ccco2)C2=C(CCCC2=O)N1 (stereo not drawn) [Compound 1, 4-(Furan-2-yl)-2-methyl-5-oxo-N-(o-tolyl)-1,4,5,6,7,8-hexahydroquinoline-3-carboxamide, reference compound] | not affected | not affected |  |  |  | 
2 | CCCC1C(C(=O)Nc2cc(Cl)ccc2Cl)=C(C)NC2=C1C(=O)CCC2 (stereo not drawn) [Compound 57, N-(2,5-Dichlorophenyl)-2-methyl-5-oxo-4-propyl-1,4,5,6,7,8-hexahydroquinoline-3-carboxamide] |  |  | 2000 | complete stability | fully stable | minor decomposition
